The record followed here is US20090203711A1, “Inhibitors of P38 Map Kinase” (CHROMA THERAPEUTICS LTD., priority 2006, published 2009).

pIC50: −log10 of the molar value. Where a name gives a salt, the structure may show the parent alone.

In one test the test system is human whole blood. The test is described as follows: LPS-stimulation of human whole blood, TNF-α release by ELISA. The format is cell-based. As to conditions: LPS 100 ng/ml, 6 hrs, inhibitor added 2 hrs before, read-out: Inhibitor activity versus human whole blood TNFα release. On the procedure: LPS-Stimulation of Human Whole Blood
Whole blood was taken by venous puncture using heparinised vacutainers (Becton Dickinson) and diluted in an equal volume of RPMI 1640 tissue culture media (Sigma). 100 μl was plated in V-bottomed 96 well tissue culture treated plates. 2 hrs after the addition of the inhibitor in 100 μl of RPMI 1640 media, the blood was stimulated with LPS (E. coli strain 005:B5, Sigma) at a final concentration of 100 ng/ml and incubated at 37° C. in 5% CO2 for 6 hrs. TNF-α levels were measured from cell-free supernatants by sandwich ELISA (R&D Systems #QTA00B)
(ELISA stands for enzyme-linked immunosorbent assay.)

A further test deals with THP-1 cells. The test is described as follows: LPS-stimulation of THP-1 cells, TNF-α release by ELISA. Format: cell-based. The settings on record: Homo sapiens, LPS 1 μg/ml, 6 hrs, inhibitor added 2 hrs before, read-out: Inhibitor activity versus THP-1 TNFα release. On the procedure:
LPS-Stimulation of THP-1 Cells
THP-1 cells were plated in 100 μl at a density of 4×10^4 cells/well in V-bottomed 96 well tissue culture treated plates and incubated at 37° C. in 5% CO2 for 16 hrs. 2 hrs after the addition of the inhibitor in 100 μl of tissue culture media, the cells were stimulated with LPS (E coli strain 005:B5, Sigma) at a final concentration of 1 μg/ml and incubated at 37° C. in 5% CO2 for 6 hrs. TNF-α levels were measured from cell-free supernatants by sandwich ELISA (R&D Systems #QTA00B)

On to `Nc1c(C(=O)c2ccc(F)cc2F)ccc(=O)n1-c1c(F)cc(OCC[C@@H](N)C(=O)OC2CCCC2)cc1F` [Example 4, Cyclopentyl (R)-2-Amino-4-{4-[6-amino-5-(2,4-difluorobenzoyl)-2-oxo-2H-pyridin-1-yl]-3,5-difluorophenoxy}butanoate Trifluoroacetate], for which the pIC50 with human whole blood was 6.00 to 7.00.
With `CC(C)(C)OC(=O)[C@@H](N)CCCOc1cc(F)c(-n2c(N)c(C(=O)c3ccc(F)cc3F)ccc2=O)c(F)c1` [Example 6, Tert-Butyl (S)-2-Amino-5-{4-[6-amino-5-(2,4-difluorobenzoyl)-2-oxo-2H-Pyridin-1-yl]-3,5-difluorophenoxy}pentanoate], in the test on human whole blood, the pIC50 was 6.00 to 7.00.
Regarding `Nc1c(C(=O)c2ccc(F)cc2)ccc(=O)n1-c1c(F)cc(OCCC[C@H](N)C(=O)OC2CCCC2)cc1F` [Example 7], in the test with human whole blood, the pIC50 is 6.00 to 7.00.
Regarding `CC(C)(C)OC(=O)N[C@@H](CCCOc1cc(F)c(-n2c(N)c(C(=O)c3ccc(F)cc3F)ccc2=O)c(F)c1)C(=O)OC1CCCC1` [Intermediate 1, Cyclopentyl (S)-5-{4-[6-Amino-5-(2,4-difluorobenzoyl)-2-oxo-2H-pyridin-1-yl]-3,5-difluorophenoxy}-2-tert-butoxycarbonylamino Pentanoate], the pIC50 in the test on THP-1 cells is 6.00 to 7.00.
The same measure, in the same setting: then `CC(C)(C)OC(=O)N[C@@H](CCOc1cc(F)c(-n2c(N)c(C(=O)c3ccc(F)cc3F)ccc2=O)c(F)c1)C(=O)OC1CCCC1` [Intermediate 2, Cyclopentyl (S)-4-{4-[6-Amino-5-(2,4-difluorobenzoyl)-2-oxo-2H-pyridin-1-yl]-3,5-difluorophenoxy}-2-tert-butoxycarbonylaminobutyrate], with 6.00 to 7.00.
